Entries after “also recorded” stand apart in the source; their conditions may differ.
Key:
[1] = target: T1, recombinant active rho kinase 2 (ROCK) (Homo sapiens, UniProt O75116); test: ROCK inhibition assay (ROCK assay kit, anti-phospho-MYPT1 detection); type: biochemical; details: test compounds 0.1 to 100 μM; compared to Fasudil in corresponding concentration; FIG. 12
T1 construct: purchased Upstate, Lake Placid, N.Y., USA (enzyme); Cell Biolabs Inc., San Diego (assay kit with substrate)
Procedure: The inhibitory effect of test compounds on rho kinase 2 (ROCK) was analyzed using recombinant active rho kinase 2 (Upstate, Lake Placid, N.Y., USA) and the a ROCK assay kit (Cell Biolabs Inc., San Diego, Calif., USA) following the manufacture's instruction. Recombinant rho kinase 2 was dissolved in kinase reaction buffer including the kinase substrate in the presence of the test compound. Test compounds were added in a final concentration of 0.1 to 100 μM. Assays without test compound served as control. […] Assays were incubated at 30° C. for 30-60 min and subsequently stopped by adding 50% of the reaction-volume of 0.5 M EDTA, pH 8.0. After washing steps phosphorylated kinase substrate was quantified using a specific anti-phospho-MYPT1 (Thr696) antibody and a HRP-conjugated secondary antibody.

[2] = target: over 400 kinases; test: KinomeScan competition binding assay, kinase specificity; details: 10 μM; competition of more than 50% regarded as inhibitory; FIG. 13A
From the text: (§1) Based on a competition binding assay that quantitatively measures the ability of a test compound to compete with an immobilized, active-site directed ligand it is possible to scan the competitive effect of the test compound for a broad variety of kinases in parallel (KinomeScan, Ambit, San Diego, Calif., USA; Fabian et al., Nat. Biotechnol. 2005, 23, 329). Based on this analysis it is possible to assess the inhibitory specificity of a test compound. […] As result of the assay one obtains the percentage of competition of the active-site directed ligand for each of the over 400 kinases of the test due to the incubation with the test compounds. Competitions of more than 50% were regarded as significant indicating for inhibition of the particular kinase.

[3] = target: T2, IRAK1 (Homo sapiens, UniProt P51617); test: KinomeScan competition binding assay; details: 10 μM; competition of more than 50% regarded as inhibitory
T2 construct: purchased Ambit, San Diego, Calif., USA (KinomeScan)
From the text: as §1

[4] = test system: PIM kinases; test: KinomeScan competition binding assay; details: 10 μM; competition of more than 50% regarded as inhibitory
From the text: as §1

[5] = test system: Hippocampal primary neurons; test: Neurite outgrowth analysis; type: cell-based, rats; details: 1.5 μM or 15 μM, 2 days in culture; versus negative control and Fasudil; FIG. 15
Procedure: The effect of test compounds on neurite outgrowth can be assessed in vitro. Hippocampal primary neurons prepared from embryonic (E18) rats were cultured in Neurobasal medium (Invitrogen) enriched with B27, bFGF, Penicillin/Streptomycin, L-Glutamin. For the neurite outgrowth assay the medium is mixed with conditioned medium in a 1:1 ratio. The neurites were immunocytochemically stained using an antibody against the axonal marker neurofilament-light. Photographs were acquired at 40-fold magnification (Olympus IX81) and assembled to allow analysis of whole individual neurons. The test compounds 1-(8-methyl-5 isoquinoline-sulfonyl)homopiperazine and 1-(1-chloro-8-methoxy-5 isoquinoline-sulfonyl)homopiperazine were added to the medium in the final concentration of 1.5 μM or 15 μM 1 h after plating in comparison to adding water which served as negative control. […] After 2 days in culture the cells were fixed. Photographs and neurite tracing were performed in a blinded manner.

[6] = test system: hippocampal slices; test: In vitro LTP analysis (theta burst stimulation, fEPSP slope); type: cell-based, Wistar rats
From the text: Long-term potentiation (LTP) is an in vitro model for the assessment of memory function. Therefore, it allows analysis of test compounds, e.g. the compounds of the invention, e.g. 1-(8-methyl-5 isoquinoline-sulfonyl)homopiperazine and 1-(1-chloro-8-methoxy-5 isoquinoline-sulfonyl)homopiperazine, for memory enhancing potential. Experiments were done on hippocampal slices from 3-4 week-old Wistar rats. The rats were sacrificed by decapitation without prior anesthesia. Brains were quickly removed and soaked in ice cold artificial cerebrospinal fluid (ACSF) containing: NaCl (124 mM), KCl (5 mM), Na2HPO4 (1.2 mM), NaHCO3 (26 mM), CaCl2 (2 mM), MgSO4 (2 mM), and glucose (10 mM), that was continuously bubbled with carbogen (95% O2, 5% CO2). Slices were then cut at 400 μm thickness using a vibratome and incubated in ACSF at room temperature for at least 1 h before starting recordings. All compounds used were diluted in ACSF at the concentrations needed and were prepared fresh on the day of recording from 100 mM stock solutions. To assure proper solubility of the compounds, stock solutions were made with DMSO. For recording, slices were transferred to a 4-channel slice chamber (Synchroslice, Lohmann Research Equipment) that allows simultaneous recording of 4 brain slices. Each slice was placed in a separate submerged type slice chamber were it was continuously superfused with temperature controlled (34° C.) ACSF or ACSF at a rate of 2 ml/min. Under visual control by a camera system, a bipolar stimulation electrode (Rhoades) was placed in the Schaffer collaterals and a single biphasic electrical stimulus of a duration of 200 μs and an amplitude of 200 μA was applied at 0.05 Hz. A platinum/tungsten electrode was then lowered into the CA1 dendritic layer under visual control until stable amplitudes of the recorded fEPSP were achieved. After a recording period of at least 10 min, the input-output relationship between stimulus amplitude and fEPSP amplitude was achieved separately for each slice. […] To induce LTP, 10 theta bursts were applied. Each burst consisted of 4 biphasic stimuli of […] and 600 μA amplitude at a 10 ms interstimulus interval. The interburst interval was 200 ms. Each recording cycle started with a 15 min period in which electrical stimuli were applied at 0.05 Hz to assure stability of the fEPSP amplitude. Then, test the compound was washed in for a period of 30 min during which stimulation was continued at 0.05 Hz and fEPSPs were continuously recorded. LTP induction by theta burst stimulation was started 30 min after wash in. Recording was continued after LTP induction for at least 60 min, 30 min after LTP induction, compounds were washed out. All slices recorded simultaneously were treated with the same time schedule. From the recorded data, the amplitudes of the evoked fEPSP were automatically calculated by the recording software (Synchroslice data acquisition and analysis, LRE) as the negative peak of the postsynaptic signal with respect to baseline and plotted online. All recorded signals were digitally stored for later offline analysis, in particular for fEPSP negative slope calculation. From the stored single sweeps, the slope was calculated between 30% and 70% of the maximum fEPSP amplitude. To allow comparison of data obtained from different slices, fEPSP slopes were normalized to the control value (100%).
Effects induced by applied substances were tested for statistical significance using either the Student's t-test or the Mann-Whitney Rank Sum Test, significance was assumed if p<0.05. Measurements for each experimental condition were repeated six times. Results are given as means from n=5 slices and standard deviation (SD). […] This could be due to the activation of undesired kinases and/or pathways at this concentration. […]

[7] = target: T3, ROCK2 (Homo sapiens, UniProt O75116); test: KinomeScan competition binding assay; details: 10 μM; compared to Fasudil
T3 construct: purchased Ambit, San Diego, Calif., USA (KinomeScan)
From the text: as §1

[8] = test system: undifferentiated PC12 cells; details: Zhang et al. 2006; cited from earlier work
[9] = Huentelman et al. 2009; WO 2008/019395; cited from earlier work

T1 sequence (O75116 whole entry): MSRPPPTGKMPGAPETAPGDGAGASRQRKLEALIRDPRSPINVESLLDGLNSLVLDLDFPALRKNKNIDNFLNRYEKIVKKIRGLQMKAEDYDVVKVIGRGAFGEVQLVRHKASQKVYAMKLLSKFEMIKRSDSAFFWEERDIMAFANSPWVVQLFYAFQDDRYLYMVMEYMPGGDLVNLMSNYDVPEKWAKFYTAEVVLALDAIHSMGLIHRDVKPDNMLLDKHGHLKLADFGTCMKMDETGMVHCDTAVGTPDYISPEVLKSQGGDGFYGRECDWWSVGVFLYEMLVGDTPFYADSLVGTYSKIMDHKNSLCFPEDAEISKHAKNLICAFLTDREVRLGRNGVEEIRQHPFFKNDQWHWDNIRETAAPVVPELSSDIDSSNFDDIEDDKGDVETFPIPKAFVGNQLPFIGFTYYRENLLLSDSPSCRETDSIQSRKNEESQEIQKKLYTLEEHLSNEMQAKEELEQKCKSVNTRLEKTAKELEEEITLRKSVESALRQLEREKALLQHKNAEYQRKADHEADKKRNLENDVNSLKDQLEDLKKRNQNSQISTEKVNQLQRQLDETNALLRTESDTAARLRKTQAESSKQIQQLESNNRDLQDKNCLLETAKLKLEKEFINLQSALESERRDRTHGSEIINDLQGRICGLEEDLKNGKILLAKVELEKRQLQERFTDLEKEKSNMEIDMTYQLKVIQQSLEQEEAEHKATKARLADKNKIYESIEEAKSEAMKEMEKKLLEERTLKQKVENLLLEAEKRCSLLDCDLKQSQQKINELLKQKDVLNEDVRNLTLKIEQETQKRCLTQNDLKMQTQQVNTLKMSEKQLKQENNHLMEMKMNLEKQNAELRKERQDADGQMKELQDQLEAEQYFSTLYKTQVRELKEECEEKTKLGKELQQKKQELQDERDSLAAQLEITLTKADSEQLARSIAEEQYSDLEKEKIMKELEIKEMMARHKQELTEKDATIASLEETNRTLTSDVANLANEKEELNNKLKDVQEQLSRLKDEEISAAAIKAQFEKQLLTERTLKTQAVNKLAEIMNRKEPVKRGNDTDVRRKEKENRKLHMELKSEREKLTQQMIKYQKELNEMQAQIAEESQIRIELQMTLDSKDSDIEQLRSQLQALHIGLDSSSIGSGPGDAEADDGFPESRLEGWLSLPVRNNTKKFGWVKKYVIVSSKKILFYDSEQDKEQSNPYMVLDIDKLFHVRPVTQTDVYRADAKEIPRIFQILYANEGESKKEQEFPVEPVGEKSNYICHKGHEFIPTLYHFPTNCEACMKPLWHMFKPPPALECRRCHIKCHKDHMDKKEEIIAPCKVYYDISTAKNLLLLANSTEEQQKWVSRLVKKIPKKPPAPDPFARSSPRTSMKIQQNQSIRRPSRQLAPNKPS
T2 sequence (P51617 whole entry): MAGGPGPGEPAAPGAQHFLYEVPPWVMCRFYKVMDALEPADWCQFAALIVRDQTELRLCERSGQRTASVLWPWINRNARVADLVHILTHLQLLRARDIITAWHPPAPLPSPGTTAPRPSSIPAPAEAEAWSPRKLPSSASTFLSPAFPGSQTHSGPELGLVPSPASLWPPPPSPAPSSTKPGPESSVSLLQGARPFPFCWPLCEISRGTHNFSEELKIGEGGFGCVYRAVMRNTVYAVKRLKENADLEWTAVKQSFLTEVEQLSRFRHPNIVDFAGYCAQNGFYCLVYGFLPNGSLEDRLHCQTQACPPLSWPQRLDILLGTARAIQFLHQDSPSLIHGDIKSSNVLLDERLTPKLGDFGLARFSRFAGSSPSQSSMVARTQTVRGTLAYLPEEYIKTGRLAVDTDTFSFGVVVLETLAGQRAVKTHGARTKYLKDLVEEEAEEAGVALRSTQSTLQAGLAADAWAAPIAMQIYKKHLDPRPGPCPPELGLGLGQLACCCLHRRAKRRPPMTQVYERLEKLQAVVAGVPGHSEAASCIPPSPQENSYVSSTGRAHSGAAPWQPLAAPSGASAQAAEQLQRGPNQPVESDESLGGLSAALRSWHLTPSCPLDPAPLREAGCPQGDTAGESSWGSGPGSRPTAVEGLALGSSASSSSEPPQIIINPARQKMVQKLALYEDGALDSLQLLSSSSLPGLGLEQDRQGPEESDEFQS
T3 sequence (O75116 whole entry): as the sequence (O75116 whole entry) above

| SMILES | ROCK inhibition (rho kinase 2 activity) [1] | kinase specificity / kinase interaction spectrum [2] | inhibitory effect for IRAK1 [3] | inhibitory effect for PIM kinases [4] | neurite outgrowth promoting activity [5] | enhancement of LTP (overall conclusion) [6] | effect on LTP ([6]; 1 μM) | effect on LTP ([6]; 10 μM) | effect on LTP ([6]; 100 μM) | synaptic activity upon removal of the substance ([6]; 100 μM, after wash out) | affinity to ROCK2 [7] | neurite outgrowth [8] | learning and memory [9] |
| --- | --- | --- | --- | --- | --- | --- | --- | --- | --- | --- | --- | --- | --- |
| COc1ccc(S(=O)(=O)N2CCCNCC2)c2ccnc(Cl)c12 [1-(1-chloro-8-methoxy-5 isoquinoline-sulfonyl)homopiperazine] | enhanced ROCK inhibition compared to Fasudil | much more specific ROCK inhibitor than Fasudil; also recorded: very specific ROCK inhibitor | mainly inhibitory effect only for PIM kinases and IRAK1 | mainly inhibitory effect only for PIM kinases and IRAK1 | did not significantly promote neurite outgrowth | significant enhancement of LTP | clearly superior LTP stimulating effect compared to fasudil | LTP induction is unaltered but the maintenance seems to be impaired | LTP induction is blocked completely | clear rebound of synaptic activity | – | – | – |
| Cc1ccc(S(=O)(=O)N2CCCNCC2)c2ccncc12 [1-(8-methyl-5 isoquinoline-sulfonyl)homopiperazine] | enhanced ROCK inhibition compared to Fasudil | broader kinase interaction spectrum comparable to that of Fasudil | – | – | superior neurite outgrowth promoting activity | – | blocks LTP | – | the ability of LTP induction is re-established | – | much stronger affinity to ROCK2 than Fasudil | – | – |
| O=S(=O)(c1cccc2cnccc12)N1CCCNCC1 [Fasudil] | – | – | – | – | – | – | – | – | – | – | – | increase neurite outgrowth | can enhance learning and memory |

Source: patent publication US20110294789A1, “COMPOUNDS FOR RHO KINASE INHIBITION AND FOR IMPROVING LEARNING AND MEMORY” (AMNESTIX, INC., priority 2008, published 2011)
